# Measurements published in PubChem BioAssay AID1963972 (Molecular Pharmacology Branch, DTP, NCI, 2024).
# System: 945468-187-T-J2-PDC spheroids viability
# Assay: Anticancer human tumor 945468-187-T-J2-PDC patient-derived rectal carcinoma cell line growth inhibition [PI3K]
# Settings: spheroids with HUVEC and MSC; for IC50: curve of first compound; for viability, T/C: stronger effect = lower value
# Procedure, shortened: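 Combination activity was assessed by viability in multicellular tumor spheroids carrying HUVEC and MSC components. Agents were tested with PI3K inhibitors from a Cmax-based top dose (or 10 microM) downward in half-log increments.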
# 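Further: spheroids exposed to compounds for seven days before reading.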
smiles,measurement,setting,value
CNC(=O)c1ccc(N2C(=S)N(c3ccc(C#N)c(C(F)(F)F)c3)C(=O)C2(C)C)cc1F + COc1c(OCCCN2CCOCC2)ccc2c3n(c(=NC(=O)c4cnc(N)nc4)nc12)CCN3,IC50,second compound 0.00316 µM,> 10 µM
same,IC50,second compound 0.01 µM,> 10 µM
same,IC50,second compound 0.0316 µM,> 10 µM
same,IC50,second compound 0.1 µM,> 10 µM
same,IC50,second compound 0.316 µM,< 0.0316 µM
same,IC50,second compound 1 µM,< 0.0316 µM
same,"viability, T/C","second compound 0.00316 µM, first compound 0.0316 µM",107%
same,"viability, T/C","second compound 0.00316 µM, first compound 0.1 µM",86.3%
same,"viability, T/C","second compound 0.00316 µM, first compound 0.316 µM",94.9%
same,"viability, T/C","second compound 0.00316 µM, first compound 1 µM",113%
same,"viability, T/C","second compound 0.00316 µM, first compound 3.16 µM",91.1%
same,"viability, T/C","second compound 0.00316 µM, first compound 10 µM",80%
same,"viability, T/C","second compound 0.01 µM, first compound 0.0316 µM",95.5%
same,"viability, T/C","second compound 0.01 µM, first compound 0.1 µM",92.2%
same,"viability, T/C","second compound 0.01 µM, first compound 0.316 µM",108%
same,"viability, T/C","second compound 0.01 µM, first compound 1 µM",110%
same,"viability, T/C","second compound 0.01 µM, first compound 3.16 µM",90.9%
same,"viability, T/C","second compound 0.01 µM, first compound 10 µM",72.1%
same,"viability, T/C","second compound 0.0316 µM, first compound 0.0316 µM",87.8%
same,"viability, T/C","second compound 0.0316 µM, first compound 0.1 µM",93.1%
same,"viability, T/C","second compound 0.0316 µM, first compound 0.316 µM",113%
same,"viability, T/C","second compound 0.0316 µM, first compound 1 µM",111%
same,"viability, T/C","second compound 0.0316 µM, first compound 3.16 µM",93%
same,"viability, T/C","second compound 0.0316 µM, first compound 10 µM",109%
same,"viability, T/C","second compound 0.1 µM, first compound 0.0316 µM",102%
same,"viability, T/C","second compound 0.1 µM, first compound 0.1 µM",94%
same,"viability, T/C","second compound 0.1 µM, first compound 0.316 µM",95.9%
same,"viability, T/C","second compound 0.1 µM, first compound 1 µM",81.2%
same,"viability, T/C","second compound 0.1 µM, first compound 3.16 µM",82%
same,"viability, T/C","second compound 0.1 µM, first compound 10 µM",64.4%
same,"viability, T/C","second compound 0.316 µM, first compound 0.0316 µM",33.8%
same,"viability, T/C","second compound 0.316 µM, first compound 0.1 µM",39.6%
same,"viability, T/C","second compound 0.316 µM, first compound 0.316 µM",48.2%
same,"viability, T/C","second compound 0.316 µM, first compound 1 µM",38.6%
same,"viability, T/C","second compound 0.316 µM, first compound 3.16 µM",38.5%
same,"viability, T/C","second compound 0.316 µM, first compound 10 µM",34.7%
same,"viability, T/C","second compound 1 µM, first compound 0.0316 µM",18.2%
same,"viability, T/C","second compound 1 µM, first compound 0.1 µM",21.1%
same,"viability, T/C","second compound 1 µM, first compound 0.316 µM",17.2%
same,"viability, T/C","second compound 1 µM, first compound 1 µM",23.1%
same,"viability, T/C","second compound 1 µM, first compound 3.16 µM",23.3%
same,"viability, T/C","second compound 1 µM, first compound 10 µM",21%
